Assays:
hERG channel = target: T1, hERG channel (Homo sapiens, UniProt Q12809); assay: hERG electrophysiology, automated whole-cell patch clamp (Patchliner); assay type: cell-based
T1 construct: expressed in transfected cells
Description: This assay is used to evaluate the disclosed compounds' inhibition activities against the hERG channel.
CHO-K1 cells stably expressing hERG were grown in Ham's F-12 Medium with glutamine containing 10% heat-inactivated FBS, 1% penicillin/streptomycin, hygromycin (100 μg/ml) and G418 (100 μg/ml). Cells were grown in culture flasks at 37° C. in a 5% CO2-humidified incubator.
(§1) The cells were bathed in an extracellular solution containing 140 mM NaCl, 4 mM KCl, 2 mM CaCl2), 1 mM MgCl2, 5 mM glucose, and 10 mM HEPES; pH adjusted to 7.4 with NaOH; 295-305 mOsm. The internal solution contained 50 mM KCl, 10 mM NaCl, 60 mM KF, 20 mM EGTA, and 10 mM HEPES; pH adjusted to 7.2 with KOH; 285 mOsm. All compounds were dissolved in DMSO at 30 mM. Compound stock solutions were freshly diluted with external solution to concentrations of 30 nM, 100 nM, 300 nM, 1 μM, 3 μM, 10 μM, 30 μM and 100 μM. The highest content of DMSO (0.3%) was present in 100 μM.
The voltage protocol (see Table 3) was designed to simulate voltage changes during a cardiac action potential with a 300 ms depolarization to +20 mV (analogous to the plateau phase of the cardiac action potential), a repolarization for 300 ms to −50 mV (inducing a tail current) and a final step to the holding potential of −80 mV. The pulse frequency was 0.3 Hz. Control (compound-free) and compound pulse trains for each compound concentration applied contained 70 pulses.
(§2) Whole-cell current recordings and compound application were enabled by means of an automated patch clamp platform Patchliner (Nanion). EPC 10 patch clamp amplifier (HEKA) along with Patchmaster software (HEKA Elektronik Dr. Schulze GmbH) was used for data acquisition. Data were sampled at 10 kHz without filtering. Increasing compound concentrations were applied consecutively to the same cell without washouts in between.
AUC and PEAK values were obtained with Patchmaster (HEKA Elektronik Dr. Schulze GmbH). To determine IC50 the last single pulse in the pulse train corresponding to a given compound concentration was used. Obtained AUC and PEAK values in the presence of compound were normalized to control values in the absence of compound. Using Origin (OridinLab), IC50 was derived from data fit to Hill equation: Icompound/Icontrol=(100-A)/(1+([compound]/IC50)nH)+A, where IC50 is the concentration at which current inhibition is half-maximal, [compound] is the applied compound concentration, A is the fraction of current that is not blocked and nH is the Hill coefficient.

Kv1.3 potassium channel = target: T2, Kv1.3 potassium channel (Homo sapiens, UniProt P22001); assay: Kv1.3 potassium channel blocker activity, automated whole-cell patch clamp (Patchliner); assay type: cell-based
T2 construct: expressed in transfected cells
Description: This assay is used to evaluate the disclosed compounds' activities as Kv1.3 potassium channel blockers.
CHO-K1 cells stably expressing Kv1.3 were grown in DMEM containing 10% heat-inactivated FBS, 1 mM sodium pyruvate, 2 mM L-glutamine and G418 (500 μg/ml). Cells were grown in culture flasks at 37° C. in a 5% CO2-humidified incubator.
as §1
The currents were evoked by applying 100 ms depolarizing pulses from −90 mV (holding potential) to +40 mV were applied with 0.1 Hz frequency. Control (compound-free) and compound pulse trains for each compound concentration applied contained 20 pulses.
10-second breaks were used between pulse trains (see Table 2 below).
as §2, with “(Nanion Technologies GmbH).” for “(Nanion).”, “(HEKA Elektronik Dr. Schulze GmbH)” for “(HEKA)”, “filtering. Passive leak currents were subtracted online using a P/4 procedure (HEKA Elektronik Dr. Schulze GmbH).” for “filtering.”, “between. Total compound incubation time before the next pulse train was not longer than 10 seconds. Peak current inhibition was observed during compound equilibration.” for “between.”
AUC and peak values were obtained with Patchmaster (HEKA Elektronik Dr. Schulze GmbH). To determine IC50, the last single pulse in the pulse train corresponding to a given compound concentration was used. Obtained AUC and peak values in the presence of compound were normalized to control values in the absence of compound. Using Origin (OridinLab), IC50 was derived from data fit to Hill equation: Icompound/Icontrol=(100−A)/(1+([compound]/IC50)nH)+A, where IC50 value is the concentration at which current inhibition is half-maximal, [compound] is the applied compound concentration, A is the fraction of current that is not blocked and nH is the Hill coefficient.

[1] = hERG channel, whole-cell patch clamp
[2] = Kv1.3 potassium channel, whole-cell patch clamp
[3] = CHO-K1 cells stably expressing hERG, +20 mV 300 ms, -50 mV 300 ms tail current, 0.3 Hz
[4] = CHO-K1 cells stably expressing Kv1.3, 100 ms pulses from -90 mV to +40 mV, 0.1 Hz

T1 sequence (Q12809 whole entry): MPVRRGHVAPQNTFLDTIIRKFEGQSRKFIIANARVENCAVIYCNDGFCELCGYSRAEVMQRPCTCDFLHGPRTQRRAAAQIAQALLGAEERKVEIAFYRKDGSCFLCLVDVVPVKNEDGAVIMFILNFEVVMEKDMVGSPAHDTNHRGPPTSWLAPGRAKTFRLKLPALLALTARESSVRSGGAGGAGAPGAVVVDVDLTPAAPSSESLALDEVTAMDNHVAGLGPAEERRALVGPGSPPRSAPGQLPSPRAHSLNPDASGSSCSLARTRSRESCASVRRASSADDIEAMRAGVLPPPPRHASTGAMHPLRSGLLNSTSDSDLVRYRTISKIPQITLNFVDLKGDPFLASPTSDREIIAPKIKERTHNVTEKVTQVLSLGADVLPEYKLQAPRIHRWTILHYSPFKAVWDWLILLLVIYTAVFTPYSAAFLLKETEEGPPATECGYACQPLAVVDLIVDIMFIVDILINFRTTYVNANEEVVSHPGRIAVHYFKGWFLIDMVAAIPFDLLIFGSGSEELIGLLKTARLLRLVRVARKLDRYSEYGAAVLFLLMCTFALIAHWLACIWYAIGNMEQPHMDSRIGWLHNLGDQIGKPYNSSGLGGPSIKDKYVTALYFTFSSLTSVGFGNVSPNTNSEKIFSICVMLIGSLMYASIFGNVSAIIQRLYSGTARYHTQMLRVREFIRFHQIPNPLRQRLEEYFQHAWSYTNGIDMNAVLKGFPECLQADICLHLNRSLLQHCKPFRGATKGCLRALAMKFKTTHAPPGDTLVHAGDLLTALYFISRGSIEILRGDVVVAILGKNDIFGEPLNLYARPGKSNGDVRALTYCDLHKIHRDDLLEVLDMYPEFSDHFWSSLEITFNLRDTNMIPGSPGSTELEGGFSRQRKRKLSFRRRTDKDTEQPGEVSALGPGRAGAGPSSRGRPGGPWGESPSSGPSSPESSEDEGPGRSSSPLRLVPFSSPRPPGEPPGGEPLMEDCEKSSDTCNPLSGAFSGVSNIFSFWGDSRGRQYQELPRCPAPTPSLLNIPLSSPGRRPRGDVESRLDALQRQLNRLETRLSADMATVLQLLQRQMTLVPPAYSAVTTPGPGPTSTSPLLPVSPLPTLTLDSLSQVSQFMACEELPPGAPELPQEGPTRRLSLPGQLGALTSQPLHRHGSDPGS
T2 sequence (P22001 whole entry): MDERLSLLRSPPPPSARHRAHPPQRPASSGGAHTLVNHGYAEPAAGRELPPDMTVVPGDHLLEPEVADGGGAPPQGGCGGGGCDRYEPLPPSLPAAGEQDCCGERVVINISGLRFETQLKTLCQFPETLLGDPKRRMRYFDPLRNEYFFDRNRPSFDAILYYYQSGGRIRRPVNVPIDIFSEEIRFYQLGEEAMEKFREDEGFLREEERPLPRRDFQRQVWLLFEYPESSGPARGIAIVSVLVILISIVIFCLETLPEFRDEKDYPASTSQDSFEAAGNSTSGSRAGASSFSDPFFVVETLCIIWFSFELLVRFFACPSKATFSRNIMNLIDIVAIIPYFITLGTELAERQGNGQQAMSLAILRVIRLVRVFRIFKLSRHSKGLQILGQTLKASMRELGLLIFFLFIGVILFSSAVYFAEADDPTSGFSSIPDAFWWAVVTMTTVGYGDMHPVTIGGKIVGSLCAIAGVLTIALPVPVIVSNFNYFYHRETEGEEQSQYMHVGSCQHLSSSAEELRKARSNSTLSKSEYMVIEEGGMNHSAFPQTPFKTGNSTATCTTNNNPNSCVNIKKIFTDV

| Structure (SMILES) | IC50 (Kv1.3 potassium channel; [2]) [nM] | IC50 (Kv1.3 potassium channel; [4]) [nM] | also measured |
| --- | --- | --- | --- |
| O=C1CN([C@H]2C[C@@](O)(CO)C2)C[C@@H]2C[C@H](c3c(O)ccc(Cl)c3Cl)CN12 (single isomer, unassigned; isomer 2) [Compound 164] | < 1000 | – | IC50 (hERG channel; [1]): > 30 µM |
| O=C(CO)N1CC(N2CC(=O)N3C[C@@H](c4c(O)ccc(Cl)c4Cl)C[C@H]3C2)C1 [Compound 133, (7R,8aS)-7-(2,3-dichloro-6-hydroxyphenyl)-2-[1-(2-hydroxyacetyl)azetidin-3-yl]-hexahydropyrrolo [1,2-a]pyrazin-4-one] | < 1000 | – | IC50 (hERG channel; [1]): > 30 µM |
| O=C(CC(O)C(F)F)N1CC(=O)N2C[C@@H](c3c(O)ccc(Cl)c3Cl)C[C@H]2C1 (stereo partly drawn) [Compound 73, (7R,8aS)-7-(2,3-dichloro-6-hydroxyphenyl)-2-(4,4-difluoro-3-hydroxybutanoyl)-hexahydropyrrolo [1,2-a]pyrazin-4-one] | < 1000 | – | IC50 (hERG channel; [1]): > 30 µM |
| O=C(C[C@H](O)C(F)F)N1CC(=O)N2C[C@@H](c3c(O)ccc(Cl)c3Cl)C[C@H]2C1 [Compound 75, (7R,8aS)-7-(2,3-dichloro-6-hydroxyphenyl)-2-[(3S)-4,4-difluoro-3-hydroxybutanoyl] hexahydropyrrolo [1,2-a]pyrazin-4-one] | < 1000 | – | IC50 (hERG channel; [1]): > 30 µM |
| CC(=O)NCC1OC(=O)N2C[C@@H](c3c(O)ccc(Cl)c3Cl)C[C@@H]12 (stereo partly drawn) [Compound 276, N-[[(6R,7aS)-6-(2,3-dichloro-6-hydroxyphenyl)-3-oxo-tetrahydro-1H-pyrrolo[1,2-c][1,3]oxazol-1-yl]methyl]acetamide] | < 1000 | – | IC50 (hERG channel; [1]): > 30 µM |
| C[C@H](O)CC(=O)N1CC(=O)N2C[C@@H](c3c(O)ccc(Cl)c3Cl)C[C@H]2C1 [Compound 59, (7R,8aS)-7-(2,3-dichloro-6-hydroxyphenyl)-2-[(3S)-3-hydroxybutanoyl]-hexahydropyrrolo[1,2-a]pyrazin-4-one] | – | < 1000 | IC50 (hERG channel; [3]): > 30 µM |
| O=C(C[C@@H](O)C1CC1)N1CC(=O)N2C[C@@H](c3c(O)ccc(Cl)c3Cl)C[C@H]2C1 [Compound 72, (7R,8aS)-2-[(3R)-3-cyclopropyl-3-hydroxypropanoyl]-7-(2,3-dichloro-6-hydroxyphenyl)-hexahydropyrrolo [1,2-a]pyrazin-4-one] | < 1000 | – | IC50 (hERG channel; [1]): < 30 µM |
| C[C@@H]1[C@@H]2C[C@H](c3c(O)ccc(Cl)c3Cl)CN2C(=O)CN1C(=O)CO (single isomer, unassigned; isomer 1) [Compound 87] | < 1000 | – | – |
| O=C1CNC[C@H]2C[C@@H](c3c(O)ccc(Cl)c3Cl)CCN12 [Compound 39] | – | < 1000 | – |
| O=C1[C@H](CO)OC[C@@H]2C[C@H](c3c(O)ccc(Cl)c3Cl)CCN12 (single isomer, unassigned) [Compound 43] | – | < 1000 | – |
| C[C@H](CO)C(=O)N1CC(=O)N2CC[C@H](c3c(O)ccc(Cl)c3Cl)C[C@@H]2C1 [Compound 20, (8S,9aR)-8-(2,3-dichloro-6-hydroxyphenyl)-2-((R)-3-hydroxy-2-methylpropanoyl)octahydro-4H-pyrido[1,2-a]pyrazin-4-one] | – | < 1000 | – |
| O=C(CO)N1CC(=O)N2C[C@H](c3c(O)ccc(Cl)c3Cl)CC[C@H]2C1 (relative stereo) [Compound 13, (7S,9aS)-rel-7-(2,3-dichloro-6-hydroxyphenyl)-2-(2-hydroxyacetyl)-hexahydro-1H-pyrido[1,2-a]pyrazin-4-one] | – | < 1000 | – |
| O=C(CCO)N1CC(=O)N2CC[C@H](c3c(O)ccc(Cl)c3Cl)C[C@@H]2C1 [Compound 58, (8S,9aR)-8-(2,3-dichloro-6-hydroxyphenyl)-2-(3-hydroxy-propanoyl)octahydro-4H-pyrido[1,2-a]pyrazin-4-one] | – | < 1000 | – |
| CCN(CC)C(=O)N1CC(=O)N2C[C@@H](c3c(O)ccc(Cl)c3Cl)C[C@H]2C1 [Compound 99, (7R,8aS)-7-(2,3-dichloro-6-hydroxyphenyl)-N,N-diethyl-4-oxo-hexahydropyrro[1,2-a]pyrazine-2-carboxamide] | < 1000 | – | – |
| O=C1[C@@H](CO)NC[C@H]2C[C@@H](c3c(O)ccc(Cl)c3Cl)CCN12 [Compound 36, (3R,8S,9aR)-8-(2,3-dichloro-6-hydroxyphenyl)-3-(hydroxymethyl)-octahydropyrido[1,2-a]pyrazin-4-one] | – | < 1000 | – |
| CO[C@@H](CO)C(=O)N1CC(=O)N2CC[C@@H](c3c(O)ccc(Cl)c3Cl)C[C@H]2C1 [Compound 56, (8R,9aS)-8-(2,3-dichloro-6-hydroxyphenyl)-2-[(2S)-3-hydroxy-2-methoxypropanoyl]-hexahydro-1H-pyrido[1,2-a]pyrazin-4-one] | – | < 1000 | – |
| CC(C)(O)C(=O)N1CC(=O)N2CC[C@@H](c3c(O)ccc(Cl)c3Cl)C[C@H]2C1 [Compound 31, (8R,9aS)-8-(2,3-dichloro-6-hydroxyphenyl)-2-(2-hydroxy-2-methylpropanoyl)octahydro-4H-pyrido[1,2-a]pyrazin-4-one] | – | < 1000 | – |

Further lines, with some results ahead:

| IC50 (Kv1.3 potassium channel; [2]) [nM] | IC50 (Kv1.3 potassium channel; [4]) [nM] | Structure (SMILES) | also measured |
| --- | --- | --- | --- |
| < 1000 | – | O=C1C[C@H](CO)C[C@@H]2C[C@H](c3c(O)ccc(Cl)c3Cl)CN12 (single isomer, unassigned) [Compound 238] | IC50 (hERG channel; [1]): > 30 µM |
| – | < 1000 | O=C1CN(CCO)C[C@@H]2C[C@H](c3c(O)ccc(Cl)c3Cl)CN12 [Compound 2, (7R,8aS)-7-(2,3-dichloro-6-hydroxyphenyl)-2-(2-hydroxyethyl)-hexahydropyrrolo[1,2-a]pyrazin-4-one] | IC50 (hERG channel; [3]): > 30 µM |
| < 1000 | – | O=C1CC[C@@H](O)[C@@H]2C[C@H](c3c(O)ccc(Cl)c3Cl)CN12 (single isomer, unassigned) [Compound 227] | – |
| < 1000 | – | N[C@@H]1C[C@@H]2C[C@H](c3c(O)ccc(Cl)c3Cl)CN2C1=O (single isomer, unassigned) [Compound 249] | – |
| < 1000 | – | C=CCN1CC(=O)N2C[C@@H](c3c(O)ccc(Cl)c3Cl)C[C@H]2C1 [Compound 113, (7R,8aS)-7-(2,3-dichloro-6-hydroxyphenyl)-2-(prop-2-en-1-yl)-hexahydropyrrolo [l,2-a]pyrazin-4-one] | – |
| < 1000 | – | O=C1C[C@@H](O)[C@@H](O)[C@@H]2C[C@H](c3c(O)ccc(Cl)c3Cl)CN12 (relative stereo) [Compound 224, (7R,8S)-rel-(2R, 8aS)-2-(2,3-dichloro-6-hydroxyphenyl)-7,8-dihydroxy-hexahydro-1H-indolizin-5-one] | – |
| < 1000 | – | O=C(NCCO)[C@H]1CC(=O)N2C[C@@H](c3c(O)ccc(Cl)c3Cl)C[C@H]2C1 (single isomer, unassigned) [Compound 233] | – |
| < 10000 | – | O=C1C[C@H](c2cc[nH]n2)C[C@@H]2C[C@H](c3c(O)ccc(Cl)c3Cl)CN12 (single isomer, unassigned) [Compound 214] | – |

Reference: patent US20230049231A1 (priority 2019, published 2023)
